Data taken from patent publication US5616613A, “Platinum(II) complex and malignant tumor treatment agent” (priority 1994, dated 1997).

Assays:
[1] = prior-art complexes; cited from earlier work
mouse leukemia L1210 = assay: Antitumor activity against L1210 cell-planted mice (T/C value); type: in vivo; details: intraperitoneal, CDF1 mice
Procedure: A portion of 1×10^5 mouse leukemia L1210 cells subcultured in DBA/2 mice were transplanted in the abdominal cavities of CDF1 mice (male, 6 weeks old, 6-10 animals/group). Each of the test compounds was intraperitoneally administered to the mice on the 1st, […] and 9th days after the day of transplantation. Each of the preparations was used after being dissolved in distilled water.
The antitumor activity of the platinum complexes against the L1210 cell-planted mice was evaluated based on the T/C value determined by the following equation. [formula]

[2] = tested on: cisplatin-resistant L1210 cells; assay: In vitro cytotoxic effect on cisplatin-resistant mouse leukemia L1210 cells (XTT colorimetric method); type: cell-based; details: read-out: 50% cell growth inhibition concentration (IC50), 37° C., 5 days
Procedure: A test of the in vitro cytotoxic effect of compound 15 and cisplatin on cisplatin-resistant mouse leukemia L1210 cells was conducted in the following manner.
1×10^5 cisplatin-resistant L1210 cells were seeded in a 96-well plate at 100 μl per well. About 100 μl of the drugs at graded dilutions was added to each well. Culturing was then performed at 37° C. for 5 days, and the cells were counted by the XTT colorimetric method.

testicular carcinoma = details: cited from earlier work; for effectiveness against testicular carcinoma and the like (in words): in vivo

In the case of `O=C(O)c1ccc(C(=O)O)c(C(=O)O)c1` [trimellitic acid], the “stability in aqueous solutions (in words)” value [1] is listed as “poor stability”.

With `N.N.[Cl][Pt][Cl]` [Cisplatin, cis-diamminedichloroplatinum(II) complex] the T/C (mouse leukemia L1210; 0.25 mg/kg) was 101%, the T/C (mouse leukemia L1210; 0.5 mg/kg) was 101% and the T/C (mouse leukemia L1210; 1 mg/kg) was 106%. It also gave a T/C (mouse leukemia L1210; 2 mg/kg) of 123%, a T/C (mouse leukemia L1210; 4 mg/kg) of 160% and an IC50 [2] of 10.7 nM. The “effectiveness against testicular carcinoma and the like (in words)” value (testicular carcinoma) was “very effective” and the “potency when readministered to recurrent patients (in words)” value (testicular carcinoma) was “lowered potency”.

In the case of `N.N.O=C([O-])C1(C(=O)[O-])CCC1.[Pt+2]` [carboplatin], the “effectiveness against testicular carcinoma and the like (in words)” value (testicular carcinoma) is listed as “very effective” and the “potency when readministered to recurrent patients (in words)” value (testicular carcinoma) is listed as “lowered potency”.
